# In publication PMC10975076, “Trypanocidal and Anti-Inflammatory Effects of Three ent-Kaurane Diterpenoids from Gymnocoronis spilanthoides var. subcordata (Asteraceae)” (Pharmaceutics, 2024):
# Like-named read-outs stand apart in the source and are kept apart here.
# Key:
# [1] = system: T. cruzi epimastigotes (RA strain); assay: In vitro activity against epimastigotes, [3H]-thymidine uptake assay; type: cell-based; conditions: Trypanosoma cruzi
# [2] = system: T. cruzi amastigotes (Tulahuen strain expressing β-galactosidase); assay: In vitro activity against amastigotes in infected Vero cells, β-galactosidase/CPRG readout; type: cell-based; conditions: Trypanosoma cruzi, 120 h, intracellular amastigotes in Vero cells, 5 days
# Experimental: Cultures of Trypanosoma cruzi epimastigotes (RA strain) were maintained through weekly passages in LIT medium supplemented with 10% fetal bovine serum at 28 °C. Trypanosoma cruzi bloodstream trypomastigotes (RA strain) were obtained from infected CF1 mice by cardiac puncture 15 days after infection at the peak of parasitemia while transfected trypomastigotes expressing β-galactosidase (Clone C4, e Tulahuen strain) were obtained from infected Vero cells.
# The activity of compounds 1–3 on the intracellular forms of T. cruzi was evaluated. Vero cells (5 × 10^3/well) were infected with culture-derived trypomastigotes of T. cruzi from the Tulahuen strain expressing β-galactosidase (MOI: 10). After an O.N. incubation at 37 °C, and 5% CO2, non-infecting parasites were washed out and infected cells were incubated with increasing concentrations of the compounds (0.001–50 µg/mL). Cells treated with DMSO or benznidazole and non-infected cells were included as controls. After 5 days, cells were lysed with 1% Nonidet P-40, and chlorophenol red-β-D-galactopyranoside (CPRG) (100 μM) was added as a substrate for the β-galactosidase enzyme. The plate was then incubated for 4 h at 37 °C and β-galactosidase activity was determined by measuring the absorbance at 570 nm. The percentage of inhibition for each concentration of compounds was calculated as: 100 − {[(absorbance of treated infected cells)/(absorbance of untreated infected cells)] × 100}.
# [3] = Cytotoxicity assay on splenocytes, propidium iodide flow cytometry; type: cell-based, mice; conditions: BALB/c, mouse, murine splenocytes
# Experimental: The cytotoxicity of the isolated compounds was evaluated using splenocytes obtained from BALB/c mice. Primary cell cultures (1.5 × 10^5) were incubated with different concentrations of the isolated phytochemicals (5–200 μg/mL) in RPMI medium supplemented with 10% fetal bovine serum. After 48 h of incubation at 37 °C (5% CO2), the cells were harvested, washed once with PBS and stained with 2.5 μg/mL propidium iodide (PI) for 5 min at room temperature. Subsequently, cell death was assessed via flow cytometry using a BD FACSaria II cytometer. Cells incubated with DMSO were used as 100% viability control, and the death percentage was calculated according to the following formula: {1 − [(% PI^− cells treated)/(% PI^− cells of the viability control)] × 100}.
# [4] = system: IL-10 production, Raw-Blue macrophages; assay: IL-10 in RAW-Blue supernatants, ELISA; type: cell-based, murine; conditions: increasing concentrations (1, 10 µg/mL), 24 h, dose-dependent
# Experimental: (§1) The production of the cytokines IL-10 and TNF was also determined in cell supernatant from these samples with an ELISA assay (R&D System, Minneapolis, MN, USA; BD Pharmingen, Franklin Lakes, NJ, USA).
# [5] = system: T. cruzi (RA strain) infection in BALB/c mice; assay: In vivo trypanocidal activity in murine model of T. cruzi infection; design: species or system Trypanosoma cruzi; conditions: for Hazard ratio (logrank) vs vehicle: Kaplan–Meier survival; for decrease in the area under the parasitemia curve (AUC): fold vs untreated control group
# [6] = system: TNF secretion, Raw-Blue macrophages; assay: TNF in RAW-Blue supernatants, capture ELISA; type: cell-based, murine; conditions: 24 h
# Experimental: as §1
# T. cruzi epimastigotes = assay: Transmission electron microscopy of treated epimastigotes; type: cell-based, Trypanosoma cruzi; conditions: 20 µM
# Experimental: All procedures were carried out according to Brengio et al.. Epimastigotes from T. cruzi were treated with 20 µM of compound 1 for either 48 h or 72 h. Then, the parasites were centrifuged at 1000× g for 10 min and fixed with 2.5% glutaraldehyde. Subsequently, they were washed three times with PBS and postfixed overnight with 2% OsO4. After washing twice with PBS, cells were stained with 1% uranyl acetate. The samples were dehydrated sequentially in ethanol and acetone and embedded in Epon 812. Ultrathin slices of 60 nm were obtained using an automatic Leica-ultracut R ultramicrotome and observed with a Microscope Zeiss EM900 (Zeiss, Oberkochen, Germany).
# [7] = system: type-I Interferon (IFN) pathway, RAW-Lucia ISG cells; assay: Type-I interferon reporter assay in RAW-Lucia ISG cells, Lucia luciferase; type: cell-based, murine; conditions: 24 h
# Experimental: The effect of compound 1 on a type-I Interferon (IFN) reporter cell line stimulated with LPS was studied. RAW-Lucia cells express the Lucia luciferase enzyme under the control of the ISG54 promoter that responds to an IFN-stimulated response element, which is activated by several Interferon Regulatory Factors (IRFs).
# RAW-Lucia ISG cells I (InvivoGen, San Diego, CA, USA) (100 μL) were cultured (100,000 cells/well) with DMEM at 37 °C in a 5% CO2 atmosphere to be stimulated with LPS (0.5 µg/mL) or a combination of LPS and compound 1 (1 and 10 µg/mL). Unstimulated cells were included as controls. After a 24 h incubation, the supernatants of each well were collected in order to quantify the luciferase activity by measuring the luminescence generated after the addition of the QUANTI-Luc reagent (InvivoGen) according to the manufacturer’s instructions with a PerkinElmer Victor3 luminometer.
# [8] = system: iNOS expression and NO production; design: method as in doi:10.7324/JAPS.2023.95766; conditions: cited from earlier work
# [9] = system: nitric oxide production, Raw-Blue cells; assay: Nitric oxide production, Griess reaction on RAW-Blue supernatants; type: cell-based, murine
# Experimental: The Griess reaction assay was performed to determine the effect of compound 1 on Nitric Oxide production. The same supernatant samples obtained in Section 2.8.2 (50 µL) were combined with 100 µL of Griess reagent. After incubation at room temperature for 30 min, absorbance was measured at 540 nm. A calibration curve was constructed with 1–250 µM of […] to extrapolate the nitrite concentration in the tested samples.
# NF-kB, RAW-Blue cells = assay: NF-kB reporter assay in RAW-Blue cells, SEAP activity; type: cell-based, murine; conditions: 24 h
# Experimental: The effect of compound 1 was evaluated on a cell line that secretes alkaline phosphatase as a surrogate marker for the secretion of NF-kB. RAW-Blue cells (InvivoGen) (100 μL) were seeded in a 96-well plate (100,000 cells/well) with DMEM at 37 °C in a 5% CO2 atmosphere. […] Untreated cells were included as controls. The supernatants were collected and absorbance at 620–655 nm was measured after the addition of the Quanti-Blue reagent (InvivoGen) in a microplate reader. Levels of NF-kB were calculated following the manufacturer’s instructions.
# [10] = T. cruzi epimastigotes, 72 h incubation, read-out: IC50 ± SEM Epimastigotes
# [11] = T. cruzi epimastigotes, 72 h incubation, value in brackets, read-out: IC50 Epimastigotes (converted)
# [12] = read-out: IC50 ± SEM Amastigotes
# [13] = value in brackets, read-out: IC50 Amastigotes (converted)
# [14] = primary splenocytes, read-out: CC50 µg/mL ± SEM
# [15] = primary splenocytes, read-out: CC50
# [16] = infected BALB/c mice, 1 mg/kg/day i.p. each for 5 days
# [17] = LPS 0.5 µg/mL, 1 or 10 µg/mL compound
Structure (SMILES),"IC50 [1, 10] [µg/mL]","IC50 [1, 11] [µM]","IC50 [2, 12] [µg/mL]","IC50 [2, 13] [µM]","CC50 at 48 h [3, 14] [µg/mL]","CC50 at 48 h [3, 15] [µM]",Hazard ratio (logrank) vs vehicle ([5]; 1 mg/kg/day i.p. for 5 days),"decrease in the area under the parasitemia curve (AUC) [5, 16]",further results
"C[C@H]1C(=O)[C@@]23CC[C@H]4[C@@](C)(CCC[C@@]4(C)C(=O)O)[C@@H]2[C@@H](O)C[C@@H]1C3 [Compound 2, (16R)-ent-11α-hydroxy-15-oxokauran-19-oic acid]",5.2 ± 0.3,15.9,6.5 ± 0.2,19.5,7.8 ± 0.2,23.3,–,–,–
"C=C1C(=O)[C@@]23CC[C@@H]4[C@](C)(C(=O)O)CCC[C@@]4(C)[C@]2(O)[C@@H](O)C[C@@H]1C3 (single isomer, unassigned; ent-9) [Compound 1, ent-9α,11α-dihydroxy-15-oxo-kaur-16-en-19-oic acid]",3.7 ± 0.5,10.6,2.1 ± 0.3,6.1,112 ± 3.4,322,0.9,two-fold,"IL-10 production and secretion [4]: increase in the production and secretion of IL-10; parasitemia levels ([5]; infected BALB/c mice, 1 mg/kg/day i.p. for 5 days, vs vehicle): significant decrease in parasitemia levels; TNF levels after LPS stimulation ([6]; LPS 0.5 µg/mL, 1 and 10 µg/mL compound): significantly reduced; basal levels of TNF ([6]; without LPS, increasing concentrations (1, 10 µg/mL)): significant decrease in the basal levels of TNF; ultrastructural effect on epimastigotes (TEM) (T. cruzi epimastigotes; 48 h): formation of abnormal cytosolic membranous structures; ultrastructural effect on epimastigotes (TEM) (T. cruzi epimastigotes; 72 h): Abnormal cytosolic membranous structures; Lucia luciferase activity after LPS stimulation [7, 17]: reduction in enzymatic activity; basal Lucia luciferase activity ([7]; unstimulated control cells, 1 or 10 µg/mL): did not affect the basal levels of Lucia luciferase activity; iNOS expression and NO production in vitro [8]: inhibit iNOS expression and NO production; nitric oxide production (nitrite) with TLR ligands ([9]; CpG 100 µg/mL, Poly(I:C) 100 µg/mL or LPS 0.5 µg/mL, compound 2.5 µg/mL, 24 h): significant decrease in nitric oxide production; nitric oxide production (nitrite levels) after LPS ([9]; LPS-stimulated Raw-Blue macrophages, dose-dependent): significantly inhibited nitric oxide production; NF-kB activation by TLR agonists (SEAP activity) (NF-kB, RAW-Blue cells; CpG 100 µg/mL, Poly(I:C) 100 µg/mL or LPS 0.5 µg/mL, compound 2.5 µg/mL): significantly inhibit NF-kB activation; LPS-mediated activation of NF-kB (SEAP activity) (NF-kB, RAW-Blue cells; [17]): dose-dependent inhibition"
"O=C(Cn1ccnc1[N+](=O)[O-])NCc1ccccc1 [Benznidazole, benznidazole, reference compound]",–,–,0.5 ± 0.04,1.9,45.3 ± 1.8,81.5,1.1,1.6,"mice remaining alive at the end of the acute infection phase ([5]; 1 mg/kg/day i.p. each for 5 days): none; IC50 ([1]; 72 h, read-out: IC50 Epimastigotes): 4.2 µM; IC50 ([1]; 72 h, read-out: IC50 ± SEM Epimastigotes): 1.08 ± 0.2 µg/mL"
"C=C1C(=O)[C@@]23CC[C@H]4[C@@](C)(CCC[C@@]4(C)C(=O)O)[C@@H]2[C@@H](O)C[C@@H]1C3 (single isomer, unassigned; ent-11) [Compound 3, ent-11α-hydroxy-15-oxo-kaur-16-en-19-oic acid]",1.6 ± 0.6,4.8,20.1 ± 8.2,60.6,–,–,–,–,CC50 at 48 h ([3]; read-out: CC50 µg/mL ± SEM): 4.9 ± 1.6 µg/mL; CC50 at 48 h ([3]; read-out: CC50): 14.8 µM
